This passage reports IC50 and Ki results from ChEMBL document CHEMBL1909046, “DrugMatrix in vitro pharmacology data”.

One data set concerns the target T1, B2 bradykinin receptor (Homo sapiens, UniProt P30411). Further: in other assays of this panel Not Active means under 50% inhibition at 10 µM.
T1 sequence (P30411 whole entry): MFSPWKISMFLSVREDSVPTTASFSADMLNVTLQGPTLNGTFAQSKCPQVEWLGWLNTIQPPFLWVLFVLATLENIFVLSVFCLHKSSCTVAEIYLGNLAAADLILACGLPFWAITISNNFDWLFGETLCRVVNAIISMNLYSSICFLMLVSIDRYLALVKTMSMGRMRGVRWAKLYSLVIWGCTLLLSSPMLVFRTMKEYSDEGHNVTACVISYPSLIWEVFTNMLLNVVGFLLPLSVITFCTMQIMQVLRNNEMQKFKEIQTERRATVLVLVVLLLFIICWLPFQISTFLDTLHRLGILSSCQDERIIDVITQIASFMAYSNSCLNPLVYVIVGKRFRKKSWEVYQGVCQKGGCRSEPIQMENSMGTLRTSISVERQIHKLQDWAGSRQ
In kind it is cell membranes, Membrane. As to conditions: chem-1.

For data set [1], the target named is 5-hydroxytryptamine receptor 4 (Cavia porcellus, UniProt O70528). In kind it is cell membranes, Dunkin-Hartley, Striatum, Membrane. Further: in other assays of this panel Not Active means under 50% inhibition at 10 µM.
For data set [2], the target named is Matrix metalloproteinase-9 (Homo sapiens, UniProt P14780). In kind it is cell-based.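 Further: inhibition of isolated MMP-9 enzyme activity toward a synthetic peptide substrate, from the DrugMatrix protease screening panel; in other assays of this panel Not Active means under 50% inhibition at 10 µM.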
The nature of data set [3]: DRUGMATRIX: Glutamate, NMDA, Phencyclidine radioligand binding (ligand: [3H] TCP). It is filed as cell membranes, Rattus norvegicus, Wistar, Cerebral cortex, Membrane. As to conditions: Not Active = under 50% inhibition at 10 µM.
The target of data set [4] is T2, Muscarinic acetylcholine receptor M4 (Homo sapiens, UniProt P08173). Further: in other assays of this panel Not Active means under 50% inhibition at 10 µM.
T2 sequence (P08173 whole entry): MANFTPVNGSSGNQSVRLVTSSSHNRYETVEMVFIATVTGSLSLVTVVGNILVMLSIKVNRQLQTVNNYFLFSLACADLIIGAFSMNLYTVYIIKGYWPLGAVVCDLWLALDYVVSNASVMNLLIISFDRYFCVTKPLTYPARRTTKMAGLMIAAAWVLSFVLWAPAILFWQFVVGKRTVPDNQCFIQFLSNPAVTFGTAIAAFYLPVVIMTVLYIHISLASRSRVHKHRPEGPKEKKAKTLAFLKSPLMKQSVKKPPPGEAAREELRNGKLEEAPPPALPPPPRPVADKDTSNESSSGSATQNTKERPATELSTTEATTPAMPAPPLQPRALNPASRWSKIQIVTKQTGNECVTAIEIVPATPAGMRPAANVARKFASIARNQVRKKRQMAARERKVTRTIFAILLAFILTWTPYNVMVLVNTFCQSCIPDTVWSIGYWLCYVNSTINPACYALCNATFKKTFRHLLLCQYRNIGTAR
It is filed as cell membranes, CHO-K1, Membrane. The following applies: cho-k1.

Data set [5] concerns the target C-C chemokine receptor type 5 (Homo sapiens, UniProt P51681). It is filed as cell membranes, Membrane. As to conditions: hek293. Further: in other assays of this panel Not Active means under 50% inhibition at 10 µM.
A further data set addresses Estrogen receptor beta (Homo sapiens, UniProt Q92731). The following applies: sf9.
In data set [6] the target is Sodium-dependent dopamine transporter (Homo sapiens, UniProt Q01959). The data set is described as follows: DRUGMATRIX: Dopamine Transporter radioligand binding (ligand: [125I] RTI-55). In kind it is cell membranes, CHO-K1, Membrane. As to conditions: cho-k1; Not Active = under 50% inhibition at 10 µM.
A further data set deals with Cytochrome P450 2E1 (Homo sapiens, UniProt P05181). The following applies: bti-tn-5b1-4.
The nature of data set [7]: DRUGMATRIX: Calcium Channel Type L, Benzothiazepine radioligand binding (ligand: [3H] Diltiazem). In kind it is cell membranes, Rattus norvegicus, Wistar, Brain, Membrane. As to conditions: Not Active = under 50% inhibition at 10 µM.
Data set [8] has as its target C-C chemokine receptor type 2 (Homo sapiens, UniProt P41597). It is filed as cell membranes, CHO-K1, Membrane. The following applies: cho-k1. Further: in other assays of this panel Not Active means under 50% inhibition at 10 µM.
The target of data set [9] is T3, Receptor-type tyrosine-protein phosphatase C (Homo sapiens, UniProt P08575).
T3 sequence (P08575 whole entry): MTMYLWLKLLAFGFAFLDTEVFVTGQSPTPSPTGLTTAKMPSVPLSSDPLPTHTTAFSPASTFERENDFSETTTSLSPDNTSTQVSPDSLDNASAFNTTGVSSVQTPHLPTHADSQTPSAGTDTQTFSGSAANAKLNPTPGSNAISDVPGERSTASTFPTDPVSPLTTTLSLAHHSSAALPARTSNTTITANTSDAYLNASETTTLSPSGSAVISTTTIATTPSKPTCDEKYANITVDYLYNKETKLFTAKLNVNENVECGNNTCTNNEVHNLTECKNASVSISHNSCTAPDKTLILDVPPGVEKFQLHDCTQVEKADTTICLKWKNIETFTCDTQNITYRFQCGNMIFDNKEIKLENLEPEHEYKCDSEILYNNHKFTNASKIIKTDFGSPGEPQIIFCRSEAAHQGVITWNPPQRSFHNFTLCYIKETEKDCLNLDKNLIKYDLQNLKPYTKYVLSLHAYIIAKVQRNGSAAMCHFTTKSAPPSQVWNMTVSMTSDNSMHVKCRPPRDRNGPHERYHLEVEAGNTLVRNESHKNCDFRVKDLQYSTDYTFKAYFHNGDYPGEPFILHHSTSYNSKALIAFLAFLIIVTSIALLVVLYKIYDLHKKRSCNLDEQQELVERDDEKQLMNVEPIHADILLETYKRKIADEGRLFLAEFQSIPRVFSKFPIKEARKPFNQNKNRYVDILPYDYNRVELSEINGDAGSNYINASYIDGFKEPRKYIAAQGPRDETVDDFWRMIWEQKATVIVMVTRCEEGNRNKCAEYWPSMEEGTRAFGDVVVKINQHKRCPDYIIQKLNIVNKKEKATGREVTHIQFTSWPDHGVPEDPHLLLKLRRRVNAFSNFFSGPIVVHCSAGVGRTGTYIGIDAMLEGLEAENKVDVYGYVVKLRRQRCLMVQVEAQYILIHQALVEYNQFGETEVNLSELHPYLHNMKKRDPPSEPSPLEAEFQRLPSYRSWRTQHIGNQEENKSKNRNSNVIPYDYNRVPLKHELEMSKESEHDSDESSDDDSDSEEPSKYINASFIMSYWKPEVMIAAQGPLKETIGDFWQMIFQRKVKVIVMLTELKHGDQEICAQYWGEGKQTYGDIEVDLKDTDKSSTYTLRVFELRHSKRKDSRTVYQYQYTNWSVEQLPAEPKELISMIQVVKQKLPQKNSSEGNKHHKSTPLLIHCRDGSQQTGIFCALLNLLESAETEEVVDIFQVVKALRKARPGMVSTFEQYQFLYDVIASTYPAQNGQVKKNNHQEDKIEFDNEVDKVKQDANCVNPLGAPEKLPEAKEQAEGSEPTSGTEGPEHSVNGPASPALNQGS
The arrangement: species or system Escherichia coli.

The next data set deals with D(1A) dopamine receptor (Homo sapiens, UniProt P21728). In words: DRUGMATRIX: Dopamine D1 radioligand binding (ligand: [3H] SCH-23390). In kind it is cell membranes, CHO, Membrane. As to conditions: Not Active = under 50% inhibition at 10 µM.
Sequence of D(1A) dopamine receptor (P21728 whole entry): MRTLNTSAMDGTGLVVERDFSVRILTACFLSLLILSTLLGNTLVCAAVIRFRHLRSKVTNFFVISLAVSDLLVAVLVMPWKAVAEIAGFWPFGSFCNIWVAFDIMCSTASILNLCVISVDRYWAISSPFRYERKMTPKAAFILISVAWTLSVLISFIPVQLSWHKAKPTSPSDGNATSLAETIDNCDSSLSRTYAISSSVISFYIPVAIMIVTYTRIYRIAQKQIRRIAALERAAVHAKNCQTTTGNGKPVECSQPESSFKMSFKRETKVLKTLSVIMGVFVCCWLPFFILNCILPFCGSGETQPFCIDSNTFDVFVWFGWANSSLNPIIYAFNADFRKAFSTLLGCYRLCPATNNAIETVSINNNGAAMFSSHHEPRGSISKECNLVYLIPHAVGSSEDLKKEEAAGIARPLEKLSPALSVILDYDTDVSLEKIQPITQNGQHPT

Sequence of Estrogen receptor beta (Q92731 whole entry): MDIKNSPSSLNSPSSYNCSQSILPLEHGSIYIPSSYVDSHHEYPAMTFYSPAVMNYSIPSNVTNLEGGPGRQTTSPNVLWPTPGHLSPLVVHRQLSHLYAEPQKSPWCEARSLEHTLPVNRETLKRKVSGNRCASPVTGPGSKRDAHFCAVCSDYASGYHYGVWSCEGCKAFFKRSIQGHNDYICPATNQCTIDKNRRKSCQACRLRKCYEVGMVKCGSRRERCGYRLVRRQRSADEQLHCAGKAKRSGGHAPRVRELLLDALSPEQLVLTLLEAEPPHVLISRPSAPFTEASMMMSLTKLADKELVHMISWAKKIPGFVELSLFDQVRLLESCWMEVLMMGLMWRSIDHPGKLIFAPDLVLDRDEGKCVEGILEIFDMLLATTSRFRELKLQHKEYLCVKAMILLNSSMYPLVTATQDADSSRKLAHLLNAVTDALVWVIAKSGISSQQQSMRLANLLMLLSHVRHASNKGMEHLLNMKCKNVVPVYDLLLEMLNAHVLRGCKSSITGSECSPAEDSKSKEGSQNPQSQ
Sequence of Cytochrome P450 2E1 (P05181 whole entry): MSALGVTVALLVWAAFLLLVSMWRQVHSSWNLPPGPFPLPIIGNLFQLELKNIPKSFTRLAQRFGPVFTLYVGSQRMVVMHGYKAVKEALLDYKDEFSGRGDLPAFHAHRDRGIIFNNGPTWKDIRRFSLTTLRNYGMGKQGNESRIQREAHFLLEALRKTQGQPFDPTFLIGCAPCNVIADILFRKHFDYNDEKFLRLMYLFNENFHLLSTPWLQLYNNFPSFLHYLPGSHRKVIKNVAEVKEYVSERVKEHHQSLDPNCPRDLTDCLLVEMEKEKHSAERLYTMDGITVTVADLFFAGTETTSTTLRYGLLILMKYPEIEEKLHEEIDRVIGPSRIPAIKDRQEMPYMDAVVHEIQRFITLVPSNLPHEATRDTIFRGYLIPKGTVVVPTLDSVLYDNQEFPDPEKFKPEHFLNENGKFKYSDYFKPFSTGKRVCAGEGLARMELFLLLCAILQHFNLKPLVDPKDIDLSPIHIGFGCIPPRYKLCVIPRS
Sequence of Matrix metalloproteinase-9 (P14780 whole entry): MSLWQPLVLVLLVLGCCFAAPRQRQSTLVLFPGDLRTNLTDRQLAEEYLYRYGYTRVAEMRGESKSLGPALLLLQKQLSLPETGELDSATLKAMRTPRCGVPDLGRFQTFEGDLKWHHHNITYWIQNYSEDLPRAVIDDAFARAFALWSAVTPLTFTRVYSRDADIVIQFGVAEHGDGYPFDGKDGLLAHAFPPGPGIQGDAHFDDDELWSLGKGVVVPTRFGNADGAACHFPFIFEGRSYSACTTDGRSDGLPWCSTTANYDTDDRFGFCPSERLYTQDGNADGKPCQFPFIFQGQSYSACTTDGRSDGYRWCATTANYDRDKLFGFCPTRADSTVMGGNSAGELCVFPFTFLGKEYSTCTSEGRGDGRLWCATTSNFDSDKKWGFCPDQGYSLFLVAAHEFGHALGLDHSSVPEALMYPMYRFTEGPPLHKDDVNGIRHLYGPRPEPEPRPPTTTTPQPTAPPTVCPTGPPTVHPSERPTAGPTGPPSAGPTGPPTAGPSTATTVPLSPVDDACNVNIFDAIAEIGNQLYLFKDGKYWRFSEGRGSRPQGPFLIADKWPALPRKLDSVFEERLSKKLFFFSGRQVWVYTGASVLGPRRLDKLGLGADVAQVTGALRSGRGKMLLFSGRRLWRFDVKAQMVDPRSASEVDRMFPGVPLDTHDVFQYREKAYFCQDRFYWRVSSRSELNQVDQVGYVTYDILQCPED
Sequence of 5-hydroxytryptamine receptor 4 (O70528 whole entry): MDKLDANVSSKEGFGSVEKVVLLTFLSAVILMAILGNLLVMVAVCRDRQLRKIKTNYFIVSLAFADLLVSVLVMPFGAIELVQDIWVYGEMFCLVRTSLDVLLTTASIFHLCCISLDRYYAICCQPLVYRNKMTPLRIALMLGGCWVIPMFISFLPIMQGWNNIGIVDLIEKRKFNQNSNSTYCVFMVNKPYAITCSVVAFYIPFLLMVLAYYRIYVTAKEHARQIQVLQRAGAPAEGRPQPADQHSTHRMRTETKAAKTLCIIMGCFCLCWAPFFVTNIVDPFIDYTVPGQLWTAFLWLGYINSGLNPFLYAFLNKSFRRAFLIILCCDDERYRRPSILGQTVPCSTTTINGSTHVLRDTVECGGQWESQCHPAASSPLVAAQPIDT
Sequence of C-C chemokine receptor type 2 (P41597 whole entry): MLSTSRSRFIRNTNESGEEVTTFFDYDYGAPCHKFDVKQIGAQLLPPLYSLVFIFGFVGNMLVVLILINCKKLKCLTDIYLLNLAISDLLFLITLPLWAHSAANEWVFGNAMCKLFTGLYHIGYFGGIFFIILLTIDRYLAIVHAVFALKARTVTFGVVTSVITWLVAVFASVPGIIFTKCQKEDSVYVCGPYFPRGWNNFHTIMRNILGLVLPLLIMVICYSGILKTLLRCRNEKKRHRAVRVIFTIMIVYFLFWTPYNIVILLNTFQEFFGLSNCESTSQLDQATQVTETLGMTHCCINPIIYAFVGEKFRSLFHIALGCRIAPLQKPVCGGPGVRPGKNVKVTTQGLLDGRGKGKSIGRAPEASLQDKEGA
Sequence of C-C chemokine receptor type 5 (P51681 whole entry): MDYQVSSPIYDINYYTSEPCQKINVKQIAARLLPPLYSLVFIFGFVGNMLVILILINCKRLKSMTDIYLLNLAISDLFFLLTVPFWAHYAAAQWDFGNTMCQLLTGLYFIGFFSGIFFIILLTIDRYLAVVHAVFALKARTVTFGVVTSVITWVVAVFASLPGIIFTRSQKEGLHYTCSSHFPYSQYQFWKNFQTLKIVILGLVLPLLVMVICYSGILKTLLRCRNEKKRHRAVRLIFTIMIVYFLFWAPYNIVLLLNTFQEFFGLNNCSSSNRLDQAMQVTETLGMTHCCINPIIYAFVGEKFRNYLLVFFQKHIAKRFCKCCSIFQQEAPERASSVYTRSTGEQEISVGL
Sequence of Sodium-dependent dopamine transporter (Q01959 whole entry): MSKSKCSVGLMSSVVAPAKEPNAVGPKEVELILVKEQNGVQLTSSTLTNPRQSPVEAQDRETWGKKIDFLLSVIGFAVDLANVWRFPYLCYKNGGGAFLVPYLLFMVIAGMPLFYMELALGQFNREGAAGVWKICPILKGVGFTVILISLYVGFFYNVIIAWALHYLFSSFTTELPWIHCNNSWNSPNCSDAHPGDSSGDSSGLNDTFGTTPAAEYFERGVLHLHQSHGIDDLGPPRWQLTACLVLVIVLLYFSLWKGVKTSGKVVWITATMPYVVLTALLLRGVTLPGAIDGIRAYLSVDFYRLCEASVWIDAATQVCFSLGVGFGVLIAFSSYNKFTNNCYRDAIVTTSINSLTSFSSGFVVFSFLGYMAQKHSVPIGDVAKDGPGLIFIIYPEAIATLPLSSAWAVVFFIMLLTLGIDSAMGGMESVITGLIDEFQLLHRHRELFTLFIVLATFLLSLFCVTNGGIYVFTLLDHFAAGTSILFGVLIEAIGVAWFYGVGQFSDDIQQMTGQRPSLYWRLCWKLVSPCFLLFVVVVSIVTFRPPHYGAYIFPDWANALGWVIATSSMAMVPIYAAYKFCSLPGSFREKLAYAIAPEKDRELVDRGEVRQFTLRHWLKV

Turning to `CC(=O)OCC(=O)[C@@]1(OC(C)=O)[C@@H](C)C[C@H]2[C@@H]3C[C@H](F)C4=CC(=O)C=C[C@]4(C)[C@@]3(F)[C@@H](O)C[C@@]21C` [DIFLORASONE DIACETATE], the IC50 result (against B2 bradykinin receptor; in [1]; in data set [2]; in data set [3]; in data set [4]; in data set [5]) was “Not Active” in each case. Besides, the IC50 entry (at Estrogen receptor beta; in data set [6]; at Cytochrome P450 2E1; in data set [7]; in data set [8]; in [9]) was “Not Active” each time. The IC50 entry on D(1A) dopamine receptor (cho) is given as “Not Active”. The Ki result (in data set [3]; on Cytochrome P450 2E1; in [7]) was “Not Active” throughout.

For `COc1ccc([C@@H]2Sc3ccccc3N(CCN(C)C)C(=O)[C@@H]2OC(C)=O)cc1` [DILTIAZEM], the 50% inhibitory concentration (IC50) result (on B2 bradykinin receptor; in data set [1]; in data set [2]; in data set [3]; in data set [4]; in data set [5]) was “Not Active” throughout. The half-maximal inhibitory concentration (IC50) entry on Estrogen receptor beta was “Not Active”; in [6], “Not Active”; against Cytochrome P450 2E1, “Not Active”; in data set [7] (read-out: IC50) it was 0.028 µM; in data set [8], “Not Active”; in data set [9], “Not Active”. For the same compound, the 50% inhibitory concentration (IC50) result on D(1A) dopamine receptor (cho) is recorded as “Not Active”. For the same compound, the values for the inhibition constant (Ki) entry (in data set [3]; on Cytochrome P450 2E1; in [7] (read-out: Ki)) were “Not Active”, “Not Active” and 0.025 µM, respectively.

Regarding `C=C1CC[C@H](O)C/C1=C/C=C1\CCC[C@]2(C)[C@@H]([C@H](C)/C=C/[C@H](C)C(C)C)CC[C@@H]12` [ERGOCALCIFEROL], the IC50 entry (at B2 bradykinin receptor; in data set [1]; in data set [2]; in [3]; in [4]; in data set [5]) was “Not Active” each time. Also, the IC50 entry (on Estrogen receptor beta; in data set [6]; on Cytochrome P450 2E1; in [7]; in [8]; in [9]) was “Not Active” each time. For the same compound, the IC50 entry at D(1A) dopamine receptor (cho) is on record as “Not Active”. Besides, the inhibition constant Ki result (in data set [3]; on Cytochrome P450 2E1; in [7]) was “Not Active” each time.

In the case of `CN1C[C@H](C(=O)N[C@]2(C)O[C@@]3(O)[C@@H]4CCCN4C(=O)[C@H](Cc4ccccc4)N3C2=O)C=C2c3cccc4[nH]cc(c34)C[C@H]21` [ERGOTAMINE], the half-maximal inhibitory concentration (IC50) result at B2 bradykinin receptor was “Not Active”; in [1] (read-out: IC50), 1.58 µM; in [2] it was “Not Active”; in data set [3], “Not Active”; in [4] it was “Not Active”; in [5], “Not Active”. In addition, the 50% inhibitory concentration (IC50) result (at Estrogen receptor beta; in data set [6]; at Cytochrome P450 2E1; in [7]; in data set [8]; in [9]) was “Not Active” each time. For the same compound, the IC50 on D(1A) dopamine receptor (read-out: IC50) is 1.73 µM. Also, the Ki was 0.264 µM in data set [1] (read-out: Ki); “Not Active” in [3]; “Not Active” at Cytochrome P450 2E1; “Not Active” in data set [7]; 0.864 µM at D(1A) dopamine receptor (read-out: Ki).

Take `CCc1cccc2c3c([nH]c12)C(CC)(CC(=O)O)OCC3` (stereo not drawn) [ETODOLAC]: the IC50 result (at B2 bradykinin receptor; in data set [1]; in data set [2]; in [3]; in [4]; in data set [5]) was “Not Active” each time. For the same compound, the IC50 entry (on Estrogen receptor beta; in data set [6]; at Cytochrome P450 2E1; in data set [7]; in data set [8]; in data set [9]) was “Not Active” throughout. The half-inhibitory concentration (IC50) result on D(1A) dopamine receptor (cho) is “Not Active”. In addition, the inhibitory constant (Ki) result (in data set [3]; on Cytochrome P450 2E1; in data set [7]) was “Not Active” in each case.

With `Cc1c(-c2ccccc2)oc2c(C(=O)OCCN3CCCCC3)cccc2c1=O` [FLAVOXATE], the IC50 entry (against B2 bradykinin receptor; in [1]; in data set [2]; in data set [3]; in [4]; in data set [5]) was “Not Active” in each case. In addition, the half-maximal inhibitory concentration (IC50) result (against Estrogen receptor beta; in [6]; on Cytochrome P450 2E1; in data set [7]; in [8]; in [9]) was “Not Active” throughout. The IC50 entry at D(1A) dopamine receptor (cho) is “Not Active”. For the same compound, the Ki entry (in data set [3]; on Cytochrome P450 2E1; in [7]) was “Not Active” throughout.

For orientation: IC50 means the concentration that gives 50% inhibition. Usually Ki stands for the equilibrium dissociation constant of an inhibitor or competing ligand from its target.
